Assay results from publication PMC11129975, “A first-in-human phase I study of TAS-117, an allosteric AKT inhibitor, in patients with advanced solid tumors” (Cancer Chemotherapy and Pharmacology, 2024).

Test: Phase I safety: adverse events, adverse drug reactions, DLTs in patients with advanced solid tumors
Assay type: in vivo, human
From the text: This was a phase I, open-label, non-randomized, dose-escalating first-in-human study to evaluate the safety, pharmacokinetics, antitumor activity, pharmacodynamics, and pharmacogenomics of TAS-117 in patients with advanced solid tumors. The study had three phases: a dose escalation phase (DEP), a regimen modification phase (RMP), and a safety assessment phase (SAP). The treatment cycle on each regimen lasted 21 days. The DEP used an accelerated titration and 3 + 3 design. TAS-117 was administered orally once daily (QD) on an empty stomach (1 h before or 2 h after a meal). Dosing was determined based on a 4-week repeated oral-dose toxicology study in monkeys (data on file, Taiho Pharmaceutical Co., Ltd.); the highest non-severely toxic dose was 1.2 mg/kg/day, which was converted to 3.84 mg/body/day, or 2.4 mg/m^2. Therefore, the starting dose was determined to be ≤ 2.4 mg/m^2. At dose level 1, TAS-117 was administered at 2 mg QD (Day − 2), and the dose was increased to 4 mg QD after 2 days (Day 1). The RMP was conducted according to a 3 + 3 design. During this phase, the dose regimen was changed from QD administration to intermittent dosing of daily TAS-117 with 4 days on/3 days off. TAS-117 was administered on an empty stomach. Dose-limiting toxicities (DLTs) were evaluated in Cycle 1 of the DEP and RMP. […] The RD and regimen for the SAP were determined based on the safety, pharmacokinetics, pharmacodynamics, and antitumor activity profile determined in the DEP and RMP. During the SAP, the safety and preliminary efficacy profiles of TAS-117 were assessed at the RD and recommended regimen. Three cohorts were included in this assessment. Cohort 1 included patients with endometrial cancer with a PIK3CA mutation; cohort 2 included patients with endometrial cancer with an AKT1 mutation, AKT1 amplification, or AKT2 amplification; and cohort 3 included patients with ovarian clear cell carcinoma.
The primary endpoints were the proportion of patients who experienced DLTs in Cycle 1 of the DEP and RMP and the incidence of adverse events (AEs) and adverse drug reactions (ADRs) in the SAP. AEs and ADRs were coded using the Medical Dictionary for Regulatory Activities (MedDRA; version 24.1) and graded according to the National Cancer Institute Common Terminology Criteria for Adverse Events (CTCAE; version 4.03). Secondary endpoints were pharmacokinetic findings, changes in the ratio of phosphorylated PRAS40 (pPRAS40)/total PRAS40 from baseline, efficacy, and pharmacogenomics findings.

C[C@]1(O)C[C@@](N)(c2ccc(-c3nc4n(c3-c3ccccc3)COc3ccncc3-4)cc2)C1 [TAS-117]
Adverse drug reactions: Blood AP increased (Total N = 65, All grade): 7 (10.8) n (%) | Adverse drug reactions: Decreased appetite (Total N = 65, All grade): 10 (15.4) n (%) | Adverse drug reactions: Diarrhea (Total N = 65, All grade): 8 (12.3) n (%) | Adverse drug reactions: Dry skin (Total N = 65, All grade): 8 (12.3) n (%) | Adverse drug reactions: GGT increased (Total N = 65, All grade): 8 (12.3) n (%) | Adverse drug reactions: GI disorders (Total N = 65, All grade): 41 (63.1) n (%) | Adverse drug reactions: General disorders and administration site conditions (Total N = 65, All grade): 27 (41.5) n (%) | Adverse drug reactions: Hyperglycemia (Total N = 65, All grade): 30 (46.2) n (%) | Adverse drug reactions: Investigations (Total N = 65, All grade): 39 (60.0) n (%) | Adverse drug reactions: Metabolism and nutrition disorders (Total N = 65, All grade): 36 (55.4) n (%) | Adverse drug reactions: Nausea (Total N = 65, All grade): 16 (24.6) n (%) | Adverse drug reactions: Neutrophil count decreased (Total N = 65, All grade): 21 (32.3) n (%) | Adverse drug reactions: Pruritus (Total N = 65, All grade): 13 (20.0) n (%) | Adverse drug reactions: Pyrexia (Total N = 65, All grade): 17 (26.2) n (%) | Adverse drug reactions: Rash maculo-papular (Total N = 65, All grade): 58 (89.2) n (%) | Adverse drug reactions: Skin and SC tissue disorders (Total N = 65, All grade): 61 (93.8) n (%) | Adverse drug reactions: Stomatitis (Total N = 65, All grade): 37 (56.9) n (%) | Adverse drug reactions: Vomiting (Total N = 65, All grade): 7 (10.8) n (%) | Adverse drug reactions: WBC count decreased (Total N = 65, All grade): 25 (38.5) n (%) | Adverse events: ALT increased (Total N = 65, All grade): 12 (18.5) n (%) | Adverse events: AST increased (Total N = 65, All grade): 13 (20.0) n (%) | Adverse events: Any events (Total N = 65, All grade): 64 (98.5) n (%) | Adverse events: Blood AP increased (Total N = 65, All grade): 8 (12.3) n (%) | Adverse events: Decreased appetite (Total N = 65, All grade): 19 (29.2) n (%) | Adverse events: Diarrhea (Total N = 65, All grade): 15 (23.1) n (%) | Adverse events: Dry skin (Total N = 65, All grade): 11 (16.9) n (%) | Adverse events: GGT increased (Total N = 65, All grade): 11 (16.9) n (%) | Adverse events: GI disorders (Total N = 65, All grade): 51 (78.5) n (%) | Adverse events: General disorders and administration site conditions (Total N = 65, All grade): 39 (60.0) n (%) | Adverse events: Hyperglycemia (Total N = 65, All grade): 30 (46.2) n (%) | Adverse events: Investigations (Total N = 65, All grade): 42 (64.6) n (%) | Adverse events: Metabolism and nutrition disorders (Total N = 65, All grade): 44 (67.7) n (%) | Adverse events: Nausea (Total N = 65, All grade): 21 (32.3) n (%) | Adverse events: Neutrophil count decreased (Total N = 65, All grade): 21 (32.3) n (%) | Adverse events: Pruritus (Total N = 65, All grade): 13 (20.0) n (%) | Adverse events: Pyrexia (Total N = 65, All grade): 24 (36.9) n (%) | Adverse events: Rash maculo-papular (Total N = 65, All grade): 58 (89.2) n (%) | Adverse events: Skin and SC tissue disorders (Total N = 65, All grade): 61 (93.8) n (%) | Adverse events: Stomatitis (Total N = 65, All grade): 38 (58.5) n (%) | Adverse events: Vomiting (Total N = 65, All grade): 13 (20.0) n (%) | Adverse events: WBC count decreased (Total N = 65, All grade): 25 (38.5) n (%) | Adverse drug reactions: ALT increased (Total N = 65, ≥ Grade 3): 2 (3.1) n (%) | Adverse drug reactions: AST increased (Total N = 65, ≥ Grade 3): 0 (0.0) n (%) | Adverse drug reactions: Any events (Total N = 65, ≥ Grade 3): 39 (60.0) n (%) | Adverse drug reactions: Blood AP increased (Total N = 65, ≥ Grade 3): 0 (0.0) n (%) | Adverse drug reactions: Decreased appetite (Total N = 65, ≥ Grade 3): 0 (0.0) n (%) | Adverse drug reactions: Diarrhea (Total N = 65, ≥ Grade 3): 0 (0.0) n (%) | Adverse drug reactions: Dry skin (Total N = 65, ≥ Grade 3): 0 (0.0) n (%) | Adverse drug reactions: GGT increased (Total N = 65, ≥ Grade 3): 5 (7.7) n (%) | Adverse drug reactions: GI disorders (Total N = 65, ≥ Grade 3): 1 (1.5) n (%) | Adverse drug reactions: General disorders and administration site conditions (Total N = 65, ≥ Grade 3): 0 (0.0) n (%) | Adverse drug reactions: Hyperglycemia (Total N = 65, ≥ Grade 3): 11 (16.9) n (%) | Adverse drug reactions: Investigations (Total N = 65, ≥ Grade 3): 20 (30.8) n (%) | Adverse drug reactions: Metabolism and nutrition disorders (Total N = 65, ≥ Grade 3): 11 (16.9) n (%) | Adverse drug reactions: Nausea (Total N = 65, ≥ Grade 3): 0 (0.0) n (%) | Adverse drug reactions: Neutrophil count decreased (Total N = 65, ≥ Grade 3): 9 (13.8) n (%) | Adverse drug reactions: Pruritus (Total N = 65, ≥ Grade 3): 0 (0.0) n (%) | Adverse drug reactions: Pyrexia (Total N = 65, ≥ Grade 3): 0 (0.0) n (%) | Adverse drug reactions: Rash maculo-papular (Total N = 65, ≥ Grade 3): 23 (35.4) n (%) | Adverse drug reactions: Skin and SC tissue disorders (Total N = 65, ≥ Grade 3): 24 (36.9) n (%) | Adverse drug reactions: Stomatitis (Total N = 65, ≥ Grade 3): 1 (1.5) n (%) | Adverse drug reactions: Vomiting (Total N = 65, ≥ Grade 3): 0 (0.0) n (%) | Adverse drug reactions: WBC count decreased (Total N = 65, ≥ Grade 3): 8 (12.3) n (%) | Adverse events: ALT increased (Total N = 65, ≥ Grade 3): 2 (3.1) n (%) | Adverse events: AST increased (Total N = 65, ≥ Grade 3): 1 (1.5) n (%) | Adverse events: Any events (Total N = 65, ≥ Grade 3): 44 (67.7) n (%) | Adverse events: Blood AP increased (Total N = 65, ≥ Grade 3): 1 (1.5) n (%) | Adverse events: Decreased appetite (Total N = 65, ≥ Grade 3): 1 (1.5) n (%) | Adverse events: Diarrhea (Total N = 65, ≥ Grade 3): 1 (1.5) n (%) | Adverse events: Dry skin (Total N = 65, ≥ Grade 3): 0 (0.0) n (%) | Adverse events: GGT increased (Total N = 65, ≥ Grade 3): 8 (12.3) n (%) | Adverse events: GI disorders (Total N = 65, ≥ Grade 3): 4 (6.2) n (%) | Adverse events: General disorders and administration site conditions (Total N = 65, ≥ Grade 3): 0 (0.0) n (%) | Adverse events: Hyperglycemia (Total N = 65, ≥ Grade 3): 11 (16.9) n (%) | Adverse events: Investigations (Total N = 65, ≥ Grade 3): 24 (36.9) n (%) | Adverse events: Metabolism and nutrition disorders (Total N = 65, ≥ Grade 3): 13 (20.0) n (%) | Adverse events: Nausea (Total N = 65, ≥ Grade 3): 0 (0.0) n (%) | Adverse events: Neutrophil count decreased (Total N = 65, ≥ Grade 3): 9 (13.8) n (%) | Adverse events: Pruritus (Total N = 65, ≥ Grade 3): 0 (0.0) n (%) | Adverse events: Pyrexia (Total N = 65, ≥ Grade 3): 0 (0.0) n (%) | Adverse events: Rash maculo-papular (Total N = 65, ≥ Grade 3): 23 (35.4) n (%) | Adverse events: Skin and SC tissue disorders (Total N = 65, ≥ Grade 3): 24 (36.9) n (%) | Adverse events: Stomatitis (Total N = 65, ≥ Grade 3): 1 (1.5) n (%) | Adverse events: Vomiting (Total N = 65, ≥ Grade 3): 0 (0.0) n (%) | Adverse events: WBC count decreased (Total N = 65, ≥ Grade 3): 8 (12.3) n (%) | Patients who developed AEs related to skin disorders (all treated patients): 93.8% | Patients with maculopapular rash (all treated patients): 89.2% | Patients who discontinued because of AEs (dose level 4 (24 mg intermittent administration)): four patients | Recommended dose (RD) (intermittent dosing (4 days on/3 days off)): 24 mg | Tolerability (once daily up to 16 mg/day and intermittent dosing of 24 mg/day): well tolerated | Maculopapular rash grade ≥ 3 (printed as % of patients with this AE): 35.4%
